IC50 data for 9 compounds are collected here from patent US9428503B2, “Imidazo[4,5-c]quinolin-2-one compounds and their use in treating Cancer” (AstraZeneca AB, priority 2014, dated 2016).

Where a name gives a salt, the structure may show the parent alone.

What all share (type): cell-based
One assay has as its target mTOR (Homo sapiens (Human), UniProt P42345). Description: Assay d) mTOR cellular potency assay (phospho-AKT Ser473 in MDA-MB-468 cells). The settings on record: MDA-MB-468 cells, phospho-AKT Ser473, 2 h; geometric mean where repeated; read-out: Assay d) mTOR Cell IC50.
In another assay the target is PI3K-α (Homo sapiens, UniProt P42336). Put plainly: Assay c) PI3K cellular potency assay (phospho-Akt T308 ELISA in BT474 cells). The settings on record: BT474 cells, phospho-Akt T308, 2 h; geometric mean where repeated; read-out: Assay c) PI3Kα Cell IC50. Background: An ELISA detects its analyte on a solid surface through an enzyme-linked reagent.
In the next assay the target is ATR kinase (Homo sapiens (Human), UniProt Q13535). Description: Assay b) ATR cellular potency assay (pChk1 Ser345 in HT29 cells treated with 4NQO). To be noted: HT29 cells, pChk1 Ser345 after 4NQO; geometric mean where repeated; read-out: Assay b) ATR Cell IC50.
A further assay deals with ATM kinase (Homo sapiens (Human), UniProt Q13315). Put plainly: Assay a) ATM cellular potency assay (pATM Ser1981 in X-ray irradiated HT29 cells). To be noted: HT29 cells, pATM Ser1981 after X-ray irradiation; geometric mean where repeated; read-out: Assay a) ATM Cell IC50.

Chain of PI3K-α (P42336 whole entry, looked up): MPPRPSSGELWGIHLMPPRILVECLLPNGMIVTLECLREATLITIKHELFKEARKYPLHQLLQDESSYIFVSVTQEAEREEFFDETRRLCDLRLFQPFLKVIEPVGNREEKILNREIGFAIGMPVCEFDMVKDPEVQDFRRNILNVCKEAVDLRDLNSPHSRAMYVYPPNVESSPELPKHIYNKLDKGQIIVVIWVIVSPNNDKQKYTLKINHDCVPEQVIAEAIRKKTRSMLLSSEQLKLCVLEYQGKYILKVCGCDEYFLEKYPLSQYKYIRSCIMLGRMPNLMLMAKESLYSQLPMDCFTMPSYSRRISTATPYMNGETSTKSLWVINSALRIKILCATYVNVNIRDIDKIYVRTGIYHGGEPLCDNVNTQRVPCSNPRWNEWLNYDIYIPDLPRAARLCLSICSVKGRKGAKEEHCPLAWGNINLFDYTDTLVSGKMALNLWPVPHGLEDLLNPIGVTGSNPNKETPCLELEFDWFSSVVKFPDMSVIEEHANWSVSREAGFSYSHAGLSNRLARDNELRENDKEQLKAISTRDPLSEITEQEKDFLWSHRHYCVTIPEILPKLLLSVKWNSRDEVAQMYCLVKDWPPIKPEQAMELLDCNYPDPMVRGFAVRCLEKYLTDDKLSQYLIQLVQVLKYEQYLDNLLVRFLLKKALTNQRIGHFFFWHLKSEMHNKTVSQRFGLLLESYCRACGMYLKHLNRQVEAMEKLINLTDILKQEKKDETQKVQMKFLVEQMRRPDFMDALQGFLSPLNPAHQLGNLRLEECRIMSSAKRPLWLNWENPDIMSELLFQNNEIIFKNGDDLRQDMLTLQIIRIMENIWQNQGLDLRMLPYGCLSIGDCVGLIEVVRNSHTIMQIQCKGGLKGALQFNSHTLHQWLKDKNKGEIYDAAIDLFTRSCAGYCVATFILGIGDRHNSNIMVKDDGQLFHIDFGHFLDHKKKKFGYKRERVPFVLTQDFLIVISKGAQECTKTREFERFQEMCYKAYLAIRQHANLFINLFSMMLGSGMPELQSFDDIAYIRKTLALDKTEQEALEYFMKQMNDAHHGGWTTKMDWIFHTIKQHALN
Chain of ATR kinase (Q13535 whole entry): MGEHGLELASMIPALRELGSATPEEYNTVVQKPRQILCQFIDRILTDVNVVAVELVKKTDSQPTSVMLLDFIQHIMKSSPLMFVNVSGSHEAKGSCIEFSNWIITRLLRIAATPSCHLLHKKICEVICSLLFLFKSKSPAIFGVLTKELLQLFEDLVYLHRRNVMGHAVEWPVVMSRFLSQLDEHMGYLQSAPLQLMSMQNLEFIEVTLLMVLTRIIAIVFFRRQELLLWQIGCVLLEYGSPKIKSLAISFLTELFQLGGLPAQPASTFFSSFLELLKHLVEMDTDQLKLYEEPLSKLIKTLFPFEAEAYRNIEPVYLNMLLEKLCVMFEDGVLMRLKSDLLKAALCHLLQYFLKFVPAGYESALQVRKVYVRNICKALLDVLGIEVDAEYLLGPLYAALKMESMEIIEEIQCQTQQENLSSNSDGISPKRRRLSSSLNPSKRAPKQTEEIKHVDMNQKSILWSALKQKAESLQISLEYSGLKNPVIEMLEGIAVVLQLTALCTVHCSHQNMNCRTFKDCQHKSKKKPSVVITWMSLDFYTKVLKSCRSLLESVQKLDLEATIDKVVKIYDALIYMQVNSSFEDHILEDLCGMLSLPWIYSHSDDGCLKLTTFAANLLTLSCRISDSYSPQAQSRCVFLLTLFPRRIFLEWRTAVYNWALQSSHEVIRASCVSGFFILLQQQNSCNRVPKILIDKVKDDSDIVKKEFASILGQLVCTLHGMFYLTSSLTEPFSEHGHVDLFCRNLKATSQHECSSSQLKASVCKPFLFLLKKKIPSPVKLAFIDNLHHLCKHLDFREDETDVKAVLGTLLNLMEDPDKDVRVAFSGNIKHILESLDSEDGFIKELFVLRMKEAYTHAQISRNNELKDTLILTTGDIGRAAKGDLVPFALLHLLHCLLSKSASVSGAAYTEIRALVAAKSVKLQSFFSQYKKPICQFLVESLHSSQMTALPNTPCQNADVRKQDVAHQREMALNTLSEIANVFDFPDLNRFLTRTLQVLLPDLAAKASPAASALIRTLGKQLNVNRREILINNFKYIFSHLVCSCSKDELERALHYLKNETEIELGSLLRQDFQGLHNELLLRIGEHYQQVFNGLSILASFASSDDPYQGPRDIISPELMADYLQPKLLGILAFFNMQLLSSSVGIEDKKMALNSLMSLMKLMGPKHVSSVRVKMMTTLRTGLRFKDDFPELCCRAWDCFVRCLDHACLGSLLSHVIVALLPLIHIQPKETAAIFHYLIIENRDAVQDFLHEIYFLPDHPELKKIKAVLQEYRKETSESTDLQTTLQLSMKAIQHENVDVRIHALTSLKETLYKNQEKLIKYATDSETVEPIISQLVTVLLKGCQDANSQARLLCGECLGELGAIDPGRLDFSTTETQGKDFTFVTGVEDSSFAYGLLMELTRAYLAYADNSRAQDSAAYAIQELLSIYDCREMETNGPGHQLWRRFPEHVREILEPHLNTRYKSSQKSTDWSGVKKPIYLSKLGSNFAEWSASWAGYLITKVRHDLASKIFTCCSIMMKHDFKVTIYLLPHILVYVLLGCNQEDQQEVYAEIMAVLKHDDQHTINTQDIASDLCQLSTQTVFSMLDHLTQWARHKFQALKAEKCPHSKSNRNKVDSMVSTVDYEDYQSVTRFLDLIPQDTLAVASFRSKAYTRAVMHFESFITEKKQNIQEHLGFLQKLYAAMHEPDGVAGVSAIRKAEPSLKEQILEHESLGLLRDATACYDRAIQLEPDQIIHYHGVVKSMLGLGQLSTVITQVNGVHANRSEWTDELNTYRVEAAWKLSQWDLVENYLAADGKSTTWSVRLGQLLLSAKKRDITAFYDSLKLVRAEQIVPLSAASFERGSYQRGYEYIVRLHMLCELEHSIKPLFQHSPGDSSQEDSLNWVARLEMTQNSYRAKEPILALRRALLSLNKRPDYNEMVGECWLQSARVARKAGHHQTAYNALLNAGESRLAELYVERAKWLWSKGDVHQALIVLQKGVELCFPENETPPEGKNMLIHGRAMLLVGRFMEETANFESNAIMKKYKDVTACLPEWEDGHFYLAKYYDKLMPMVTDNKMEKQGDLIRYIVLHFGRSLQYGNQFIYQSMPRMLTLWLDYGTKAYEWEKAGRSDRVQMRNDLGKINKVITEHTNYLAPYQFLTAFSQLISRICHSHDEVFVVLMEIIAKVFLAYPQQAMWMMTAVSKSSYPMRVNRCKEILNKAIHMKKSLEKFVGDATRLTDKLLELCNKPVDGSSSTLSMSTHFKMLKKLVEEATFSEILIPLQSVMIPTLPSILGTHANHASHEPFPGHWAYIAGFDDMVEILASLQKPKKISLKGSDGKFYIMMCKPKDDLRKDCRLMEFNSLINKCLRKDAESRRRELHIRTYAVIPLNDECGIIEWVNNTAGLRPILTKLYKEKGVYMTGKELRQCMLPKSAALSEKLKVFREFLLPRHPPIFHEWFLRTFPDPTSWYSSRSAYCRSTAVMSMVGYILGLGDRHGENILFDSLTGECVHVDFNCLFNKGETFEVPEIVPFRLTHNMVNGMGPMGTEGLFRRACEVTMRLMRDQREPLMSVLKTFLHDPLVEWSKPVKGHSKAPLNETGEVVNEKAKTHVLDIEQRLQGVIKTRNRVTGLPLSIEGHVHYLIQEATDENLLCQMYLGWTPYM
Chain of ATR kinase (Q8WXE1 whole entry partner): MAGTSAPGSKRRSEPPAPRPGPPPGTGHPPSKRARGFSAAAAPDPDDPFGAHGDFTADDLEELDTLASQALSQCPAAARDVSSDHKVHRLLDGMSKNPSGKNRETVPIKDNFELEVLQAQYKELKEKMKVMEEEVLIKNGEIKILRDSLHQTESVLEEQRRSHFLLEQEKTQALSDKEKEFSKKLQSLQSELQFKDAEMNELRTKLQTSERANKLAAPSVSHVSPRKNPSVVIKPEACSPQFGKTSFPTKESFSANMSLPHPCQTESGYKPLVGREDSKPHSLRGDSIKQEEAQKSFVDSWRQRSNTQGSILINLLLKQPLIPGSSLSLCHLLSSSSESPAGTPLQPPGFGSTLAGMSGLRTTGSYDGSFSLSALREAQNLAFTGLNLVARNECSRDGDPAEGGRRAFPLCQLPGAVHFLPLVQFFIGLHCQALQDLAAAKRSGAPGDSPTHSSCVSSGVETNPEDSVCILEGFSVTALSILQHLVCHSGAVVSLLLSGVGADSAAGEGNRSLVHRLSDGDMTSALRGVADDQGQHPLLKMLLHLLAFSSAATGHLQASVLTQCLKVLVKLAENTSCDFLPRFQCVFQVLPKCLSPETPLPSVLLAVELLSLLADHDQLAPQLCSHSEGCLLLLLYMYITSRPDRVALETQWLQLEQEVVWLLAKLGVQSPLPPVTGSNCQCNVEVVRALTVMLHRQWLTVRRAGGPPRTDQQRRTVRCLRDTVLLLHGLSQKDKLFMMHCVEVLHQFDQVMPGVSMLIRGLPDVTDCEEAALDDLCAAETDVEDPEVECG

As to `CO[C@@H]1CC[C@@H](n2c(=O)n(C)c3cnc4ccc(-c5ccc(OCCCN6CCCCC6)nc5)cc4c32)C1` [Example 64, 1-[(1R,3R)-3-Methoxycyclopentyl]-3-methyl-8-[6-[3-(1-piperidyl)propoxy]-3-pyridyl]imidazo[4,5-c]quinolin-2-one], the IC50 – broadly, the concentration at which inhibition is half-maximal – at mTOR was 12000 nM; at PI3K-α it was more than 30000 nM; at ATR kinase, more than 24100 nM; at ATM kinase, 0.741 nM.
For `CN(C)CCCOc1ccc(-c2ccc3ncc4c(c3c2)n([C@H]2CCCOC2)c(=O)n4C)c(F)n1` [Example 20, 8-[6-(3-dimethylaminopropoxy)-2-fluoropyridin-3-yl]-3-methyl-1-[(3S)-oxan-3-yl]imidazo[5,4-c]quinolin-2-one], in that order: 529 nM, 1030 nM, more than 30000 nM and 0.365 nM.
Consider `CN(C)CCCOc1ccc(-c2ccc3ncc4c(c3c2)n([C@H]2CCOC2)c(=O)n4C)cn1` [Example 45, 8-[6-[3-(dimethylamino)propoxy]-3-pyridyl]-3-methyl-1-[(3S)-tetrahydrofuran-3-yl]imidazo[4,5-c]quinolin-2-one methanesulfonic acid salt], for which the IC50 on mTOR was 1190 nM; at PI3K-α it was 260 nM; at ATR kinase, 9600 nM; at ATM kinase it was less than 0.534 nM.
On the same counts, the results for `Cn1c(=O)n([C@@H]2CCCOC2)c2c3cc(-c4ccc(OCCCN5CCCC5)nc4)c(F)cc3ncc21` [Example 24, 7-fluoro-3-methyl-8-[6-(3-pyrrolidin-1-ylpropoxy)-3-pyridyl]-1-[(3R)-tetrahydropyran-3-yl]imidazo[4,5-c]quinolin-2-one] are more than 9430 nM, 7290 nM, more than 18800 nM and 0.69 nM.
On the same counts, the results for `O=c1[nH]c2cnc3ccc(-c4ccc(OCCCN5CCCCC5)nc4)cc3c2n1C1CCOCC1` [Example 36, 1-(oxan-4-yl)-8-[6-(3-piperidin-1-ylpropoxy)pyridin-3-yl]-3H-imidazo[4,5-c]quinolin-2-one] are 10600 nM, more than 25000 nM, more than 30000 nM and 3.01 nM.
On the same counts, the results for `Cn1c(=O)n(C2CCOCC2)c2c3cc(-c4ccc(OCCCN5CCCCC5)nc4)ccc3ncc21` [Example 37, 3-methyl-1-(oxan-4-yl)-8-[6-(3-piperidin-1-ylpropoxy)pyridin-3-yl]imidazo[5,4-c]quinolin-2-one] are 12400 nM, 20700 nM, more than 29400 nM and 1.2 nM.
As to `Cn1c(=O)n([C@H]2C[C@@H](O)C2)c2c3cc(-c4ccc(OCCCN5CCC5)nc4)ccc3ncc21` [Example 14, 8-[6-[3-(azetidin-1-yl)propoxy]pyridin-3-yl]-1-(cis-3-hydroxycyclobutyl)-3-methylimidazo[4,5-c]quinolin-2-one], the IC50 on mTOR is 1040 nM; at PI3K-α it was 616 nM; at ATR kinase it was more than 30000 nM; on ATM kinase it was 1.05 nM.
On the same counts, the results for `Cn1c(=O)n([C@H]2C[C@@H](O)C2)c2c3cc(-c4ccc(OCCCN5CCCC5)nc4)ccc3ncc21` [Example 15, 1-(cis-3-hydroxycyclobutyl)-3-methyl-8-[6-(3-pyrrolidin-1-ylpropoxy)pyridin-3-yl]imidazo[4,5-c]quinolin-2-one] are 2580 nM, 2390 nM, more than 30000 nM and 0.447 nM.
For `CNCCCOc1ccc(-c2ccc3ncc4c(c3c2)n([C@@H]2CCCOC2)c(=O)n4C)cn1` [Example 43, 3-methyl-8-[6-[3-(methylamino)propoxy]-3-pyridyl]-1-[(3R)-tetrahydropyran-3-yl]imidazo[4,5-c]quinolin-2-one], in that order: 262 nM, 167 nM, 2690 nM and 0.592 nM.
